Laboratory results reported in the supplement of paper PMC10307832.

What was measured:
Test in all cases: relative viability (nuclei count vs DMSO), 5 days (fraction); higher = more cells survive
[1] = compound: C1CC(C1)(C(=O)O)C(=O)O.[NH2-].[NH2-].[Pt+2] [Carboplatin] + C[C@@H](Oc1cc(-c2cnn(C3CCNCC3)c2)cnc1N)c1c(Cl)ccc(F)c1Cl [Crizotinib] (partner 1 µM)
Summary of the method: (§1)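 Relative viability is defined as nuclei in treated wells over nuclei in vehicle wells. Duplicate plates were run and medians reported. Lung cancer cell lines in 1536-well plates were dosed by pin tool one day after seeding, with one drug or with a fixed anchor-drug dose plus five library-drug doses (not always all listed) in √10 steps, and nuclei were counted after 5 days.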

[2] = compound: C1CC(C1)(C(=O)O)C(=O)O.[NH2-].[NH2-].[Pt+2] [Carboplatin] + C[C@]1(O)C[C@@H](c2nc(-c3ccc4ccc(-c5ccccc5)nc4c3)c3c(N)nccn32)C1 [Linsitinib] (partner 1 µM)
Summary of the method: as §1

[3] = compound: C1CC(C1)(C(=O)O)C(=O)O.[NH2-].[NH2-].[Pt+2] [Carboplatin] + Cc1nc(NC(=O)N2CCC[C@H]2C(N)=O)sc1-c1ccnc(C(C)(C)C(F)(F)F)c1 [Alpelisib] (partner 2 µM)
Summary of the method: as §1

[4] = compound: C1CC(C1)(C(=O)O)C(=O)O.[NH2-].[NH2-].[Pt+2] [Carboplatin] + O=C(c1cc(Cc2n[nH]c(=O)c3ccccc23)ccc1F)N1CCN(C(=O)C2CC2)CC1 [Olaparib] (partner 8 µM)
Summary of the method: as §1

Cell Line	relative viability ([1]; first compound 0.08 µM)	relative viability ([1]; first compound 0.253 µM)	relative viability ([1]; first compound 0.8 µM)	relative viability ([1]; first compound 2.53 µM)	relative viability ([1]; first compound 8 µM)	relative viability ([2]; first compound 0.08 µM)	relative viability ([2]; first compound 0.253 µM)	relative viability ([2]; first compound 0.8 µM)	relative viability ([2]; first compound 2.53 µM)	relative viability ([2]; first compound 8 µM)	relative viability ([3]; first compound 0.08 µM)	relative viability ([3]; first compound 0.253 µM)	relative viability ([3]; first compound 0.8 µM)	relative viability ([3]; first compound 2.53 µM)	relative viability ([3]; first compound 8 µM)	relative viability ([4]; first compound 0.08 µM)	relative viability ([4]; first compound 0.253 µM)	relative viability ([4]; first compound 0.8 µM)	relative viability ([4]; first compound 2.53 µM)	relative viability ([4]; first compound 8 µM)
201T	1.03	1.06	1.02	1.06	0.994	1.06	1.04	0.976	1	0.962	1.07	1.07	1.04	1.01	0.926	0.869	0.836	0.872	0.822	0.774
A549	0.963	0.789	0.697	0.598	0.294	0.715	0.717	0.666	0.522	0.446	0.811	0.901	0.854	0.674	0.234	0.332	0.388	0.314	0.329	0.174
A-427	0.91	1.13	0.894	0.976	0.799	1.07	1.08	1.03	1.02	1.12	1.14	1.09	1.02	1.05	1.06	0.733	0.695	0.88	0.648	0.712
ABC-1	1.35	1.18	0.885	0.91	0.498	0.633	0.939	0.779	0.864	0.703	1.04	1.16	1.04	0.919	0.664	1.09	0.759	0.781	0.654	0.553
BEN	1.15	0.946	0.78	0.79	0.761	1.01	1.05	0.722	0.748	0.777	1.11	1.04	0.891	0.798	0.909	1.21	1.12	1.11	0.837	0.596
CAL-12T	0.856	0.7	0.738	0.66	0.707	0.803	0.913	0.838	0.809	0.797	1.18	1.05	1.2	1.23	1.12	0.727	0.783	0.673	0.741	0.648
COR-L23	0.561	0.645	0.606	0.48	0.28	0.976	0.91	0.754	0.529	0.297	0.724	0.721	0.74	0.663	0.272	0.329	0.3	0.301	0.246	0.157
COR-L 105	0.814	0.812	0.757	0.609	0.501	0.88	1.02	0.681	0.792	0.572	1.01	1.07	0.893	0.959	0.566	0.766	0.756	0.518	0.544	0.456
Calu-6	0.916	0.924	0.763	0.639	0.338	0.988	0.948	0.943	0.967	0.601	1	0.913	1.04	0.856	0.4	0.582	0.552	0.541	0.475	0.298
ChaGo-K-1	1.14	1.09	0.943	0.647	0.579											0.43	0.409	0.376	0.332	0.362
EBC-1	0.186	0.202	0.175	0.182	0.2	0.957	0.993	0.896	0.918	0.835	0.85	0.827	0.809	0.799	0.77	0.775	0.694	0.725	0.624	0.567
EKVX	1.19	1.09	0.985	0.875	0.947	1.13	1.07	0.849	0.847	0.893	0.908	0.877	0.743	0.783	0.87	0.856	0.81	0.872	0.734	0.671
EMC-BAC-2	0.738	0.755	0.76	0.681	0.642	0.84	0.799	0.801	0.804	0.717	0.816	0.719	0.762	0.734	0.714	0.483	0.484	0.447	0.461	0.385
EPLC-272H	0.975	1.05	0.892	0.888	0.937	1.17	1.32	1.01	1.11	1.01	0.966	0.931	0.936	0.986	0.843	0.857	0.777	0.798	0.73	0.527
H3255	0.874	0.884	0.825	0.79	0.726	0.971	0.941	0.949	0.87	0.722	0.685	0.698	0.673	0.657	0.575	0.567	0.643	0.522	0.531	0.434
HARA	1.01	1.06	0.934	0.824	0.954	0.94	0.985	0.703	0.853	0.904	0.814	0.812	0.714	0.719	0.73	0.881	0.794	0.806	0.775	0.692
